# Measured values published in patent publication US8383162B2 (priority 2006, dated 2013).
# Entries after “also recorded” stand apart in the source; their conditions may differ.
# Columns and labels:
# [1] = tested on: rats; details: rat, in vivo
# [2] = tested on: rats; details: rat, in vivo; remark: listed apart in the source
# [3] = tested on: central nervous system cells; assay: Acute toxicity and electrical excitability in central nervous system cells
# [4] = tested on: synaptosomes; type: cell-based
# [5] = tested on: synaptosomes; type: cell-based; remark: listed apart in the source
# [6] = biological target: T1, N-type calcium channels (Homo sapiens, UniProt Q00975); type: cell-based, mammalian
# T1 construct: expressed in transfected cells; host or cells: HEK cells
# T1 sequence (Q02641 whole entry): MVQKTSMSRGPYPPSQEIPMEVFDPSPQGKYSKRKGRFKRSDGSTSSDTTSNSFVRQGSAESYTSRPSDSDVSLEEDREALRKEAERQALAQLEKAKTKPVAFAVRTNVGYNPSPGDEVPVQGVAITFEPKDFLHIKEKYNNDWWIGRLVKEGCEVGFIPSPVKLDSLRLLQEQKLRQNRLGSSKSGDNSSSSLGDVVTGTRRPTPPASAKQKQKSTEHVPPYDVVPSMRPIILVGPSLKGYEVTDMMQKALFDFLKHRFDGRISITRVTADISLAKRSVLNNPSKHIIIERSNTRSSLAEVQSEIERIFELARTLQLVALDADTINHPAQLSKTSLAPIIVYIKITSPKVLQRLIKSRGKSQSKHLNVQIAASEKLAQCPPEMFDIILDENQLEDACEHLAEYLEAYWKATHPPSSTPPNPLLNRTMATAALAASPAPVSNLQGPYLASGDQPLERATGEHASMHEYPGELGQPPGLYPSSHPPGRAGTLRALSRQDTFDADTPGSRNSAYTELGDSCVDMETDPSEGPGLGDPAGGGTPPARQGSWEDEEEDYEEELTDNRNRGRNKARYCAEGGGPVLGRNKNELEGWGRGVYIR
# T1 sequence (P54289 957-1103, further chain): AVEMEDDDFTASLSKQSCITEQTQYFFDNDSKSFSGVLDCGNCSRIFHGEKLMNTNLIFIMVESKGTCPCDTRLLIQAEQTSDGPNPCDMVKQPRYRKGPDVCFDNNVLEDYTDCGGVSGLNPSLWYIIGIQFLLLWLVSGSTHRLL
# T1 sequence (P54289 25-956, further chain): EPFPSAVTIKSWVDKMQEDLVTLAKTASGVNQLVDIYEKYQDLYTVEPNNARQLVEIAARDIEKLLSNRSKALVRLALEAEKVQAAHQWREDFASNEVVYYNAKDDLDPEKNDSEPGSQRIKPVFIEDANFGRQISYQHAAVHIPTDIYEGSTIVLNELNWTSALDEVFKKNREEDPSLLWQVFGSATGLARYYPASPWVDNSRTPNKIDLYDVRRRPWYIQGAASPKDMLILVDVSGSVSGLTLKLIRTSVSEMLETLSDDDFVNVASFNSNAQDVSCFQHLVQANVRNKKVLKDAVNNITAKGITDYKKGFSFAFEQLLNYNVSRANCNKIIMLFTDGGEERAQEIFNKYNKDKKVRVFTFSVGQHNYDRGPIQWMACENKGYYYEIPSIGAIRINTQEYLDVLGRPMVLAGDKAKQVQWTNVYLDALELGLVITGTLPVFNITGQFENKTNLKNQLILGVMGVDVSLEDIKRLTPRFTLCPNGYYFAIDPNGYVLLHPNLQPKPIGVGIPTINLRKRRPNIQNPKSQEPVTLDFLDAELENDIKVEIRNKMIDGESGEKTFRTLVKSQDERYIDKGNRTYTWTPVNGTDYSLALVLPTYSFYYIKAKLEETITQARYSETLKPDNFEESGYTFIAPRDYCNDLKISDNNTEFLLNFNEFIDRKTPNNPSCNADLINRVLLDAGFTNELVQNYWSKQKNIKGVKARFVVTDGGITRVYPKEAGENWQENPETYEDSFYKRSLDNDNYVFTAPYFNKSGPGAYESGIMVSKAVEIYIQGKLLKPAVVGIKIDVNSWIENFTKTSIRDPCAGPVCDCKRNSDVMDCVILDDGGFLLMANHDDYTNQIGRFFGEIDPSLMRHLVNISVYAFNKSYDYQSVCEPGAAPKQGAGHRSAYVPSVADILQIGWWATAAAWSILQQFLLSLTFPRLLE
# T1 sequence (Q00975 whole entry): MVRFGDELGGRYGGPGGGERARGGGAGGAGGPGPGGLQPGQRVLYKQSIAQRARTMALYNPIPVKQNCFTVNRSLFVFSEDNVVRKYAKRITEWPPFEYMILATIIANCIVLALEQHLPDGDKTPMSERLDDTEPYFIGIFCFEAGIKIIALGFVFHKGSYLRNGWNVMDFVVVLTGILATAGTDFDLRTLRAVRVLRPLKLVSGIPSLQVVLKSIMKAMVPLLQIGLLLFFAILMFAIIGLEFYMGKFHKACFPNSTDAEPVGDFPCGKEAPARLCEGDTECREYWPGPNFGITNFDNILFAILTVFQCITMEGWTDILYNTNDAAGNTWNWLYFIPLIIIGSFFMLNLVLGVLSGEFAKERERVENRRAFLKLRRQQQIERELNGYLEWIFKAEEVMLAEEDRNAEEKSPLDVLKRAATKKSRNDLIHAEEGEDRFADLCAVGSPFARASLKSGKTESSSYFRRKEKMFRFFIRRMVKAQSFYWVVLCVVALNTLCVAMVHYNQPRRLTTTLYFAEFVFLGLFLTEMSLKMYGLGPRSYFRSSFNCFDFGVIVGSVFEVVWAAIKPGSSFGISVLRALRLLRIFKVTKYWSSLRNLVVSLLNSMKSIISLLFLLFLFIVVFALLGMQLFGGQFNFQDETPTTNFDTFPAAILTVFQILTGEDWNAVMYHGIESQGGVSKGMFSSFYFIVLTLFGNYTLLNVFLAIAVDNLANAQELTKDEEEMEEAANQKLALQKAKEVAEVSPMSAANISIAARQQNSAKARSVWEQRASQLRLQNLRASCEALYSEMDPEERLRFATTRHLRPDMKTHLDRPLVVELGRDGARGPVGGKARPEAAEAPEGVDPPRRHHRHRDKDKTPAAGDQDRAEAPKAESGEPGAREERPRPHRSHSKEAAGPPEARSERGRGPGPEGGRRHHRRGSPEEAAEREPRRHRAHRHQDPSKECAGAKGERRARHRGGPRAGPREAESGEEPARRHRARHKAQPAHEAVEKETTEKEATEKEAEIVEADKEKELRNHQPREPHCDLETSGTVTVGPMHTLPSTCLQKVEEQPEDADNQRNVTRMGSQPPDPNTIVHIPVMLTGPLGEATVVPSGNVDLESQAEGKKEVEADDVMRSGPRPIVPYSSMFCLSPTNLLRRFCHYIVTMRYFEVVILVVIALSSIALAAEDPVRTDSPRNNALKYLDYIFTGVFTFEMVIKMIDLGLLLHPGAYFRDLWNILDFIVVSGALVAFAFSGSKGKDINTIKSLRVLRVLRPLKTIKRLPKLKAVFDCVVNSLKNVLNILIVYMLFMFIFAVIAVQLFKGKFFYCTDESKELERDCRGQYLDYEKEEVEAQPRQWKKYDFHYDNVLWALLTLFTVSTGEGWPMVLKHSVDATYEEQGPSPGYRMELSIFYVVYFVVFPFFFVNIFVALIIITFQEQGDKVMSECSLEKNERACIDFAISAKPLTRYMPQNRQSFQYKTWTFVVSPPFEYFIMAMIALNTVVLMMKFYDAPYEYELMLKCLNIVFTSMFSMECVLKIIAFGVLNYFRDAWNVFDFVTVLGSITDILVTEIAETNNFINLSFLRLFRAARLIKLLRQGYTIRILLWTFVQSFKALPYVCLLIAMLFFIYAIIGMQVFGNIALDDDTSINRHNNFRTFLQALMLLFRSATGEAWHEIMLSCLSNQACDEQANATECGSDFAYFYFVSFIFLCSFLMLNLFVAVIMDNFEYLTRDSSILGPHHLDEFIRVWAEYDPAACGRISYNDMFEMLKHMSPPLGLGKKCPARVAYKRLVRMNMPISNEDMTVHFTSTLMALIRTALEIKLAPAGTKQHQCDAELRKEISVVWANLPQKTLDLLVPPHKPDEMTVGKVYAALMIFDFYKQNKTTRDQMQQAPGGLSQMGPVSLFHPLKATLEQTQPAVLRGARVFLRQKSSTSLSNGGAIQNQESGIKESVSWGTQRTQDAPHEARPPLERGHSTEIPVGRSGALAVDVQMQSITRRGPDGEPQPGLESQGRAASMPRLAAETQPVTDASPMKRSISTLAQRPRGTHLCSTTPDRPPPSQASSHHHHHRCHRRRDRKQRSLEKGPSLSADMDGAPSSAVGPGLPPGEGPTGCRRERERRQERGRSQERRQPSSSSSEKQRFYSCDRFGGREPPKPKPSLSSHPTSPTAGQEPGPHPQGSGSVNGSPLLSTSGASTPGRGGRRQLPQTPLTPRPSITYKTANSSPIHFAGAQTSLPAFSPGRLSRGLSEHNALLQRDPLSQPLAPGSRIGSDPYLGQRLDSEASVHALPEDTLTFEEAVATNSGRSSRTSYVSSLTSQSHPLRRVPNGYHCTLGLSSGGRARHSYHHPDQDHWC
# [7] = tested on: nerve ending spinal cord of rats; type: cell-based
# [8] = Acute, chronic and neurogenic pain after intrathecal bolus pretreatment; type: in vivo; details: pretreatment by intrathecal bolus injection
# Experimental: In the heat pain model the antinociceptive effect of the Phα1B lasts 24 h.
# [9] = tested on: N-type calcium channels on neuronal pre-synaptic membrane; type: cell-based
# [10] = tested on: rats; details: rat, in vivo; remark: listed apart in the source
# [11] = tested on: HVA calcium channels subtypes (L, N, P/Q and R); type: cell-based, mammalian
# [12] = tested on: rats; details: rat, in vivo; remark: listed apart in the source
compound,measurement,setting,value
"CN1CC[C@]23c4c5ccc(O)c4O[C@H]2[C@@H](O)C=C[C@H]3[C@H]1C5 [morphine, reference compound]",duration of significant effect on hot plate,[1],up to 5 hours
Phα1B (ACIPRGEICTDDCECCGCDNQCYCPPGSSLGIFKCSCAHANKYFCNRKKEKCKA),IC50 for the antinociceptive effect,[2],50.2 pmol
same,"antinociceptive effect (pain inhibition), in words",[2],reduces the pain in rats; also recorded: more effective to inhibit pain; also recorded: higher than that induced by morphine
same,dose at which maximal inhibition was obtained,[2],87.2 pmol
same,duration of the antinociceptive effect,[2],up to 24 hours
same,effect on electrical excitability of the neurons,[3],does not affect
same,acute toxicity to the cells tested,[3]; central nervous system cells,not acutely toxic
same,effect on uptake of 45Ca2+ (calcium influx on depolarized terminal),[4],blocks
same,effect on stimulated release of glutamate,[5],blocks; also recorded: blocked the release of glutamate
same,reversibility of N-type calcium channel inhibition,[6],reversibly inhibited
same,IC50,[6]; read-out: IC50 for inhibition of N-type calcium channels,122 nM
same,efficacy to inhibit capsaicin-induced release of glutamate,[7],higher efficacy
same,"effect on acute, chronic and neurogenic pain",[8],"blocks the acute, cronic and neurogenic pain"
same,effect on capsaicin-induced increase of [Ca2+]i,[9],inhibition
same,duration of antinociceptive effect in the heat pain model,[1],24 h
same,efficacy against pain induced on the hot plate test,[1],higher efficacy than conotoxins
same,"latency period on hot plate, time points with significant increase",[1],"increasing significantly the latency period to 3, 4, 5, 6 and 24 hours"
same,factor by which antinociceptive doses are lower than doses associated with side-effects (DT50),[10],around 15 times
same,"block of HVA calcium channel subtypes (L, N, P/Q and R)",[11],reversible block of all four HVA calcium channels subtypes
same,selectivity among HVA Ca2+ channels,[11],most potent and effective on N-type; also recorded: measurable preference for N-type channels
same,"ED50 for inhibiting the inflammatory phase of formalin test, comparison",[12],lower ED50 values
same,antinociceptive effect on the inflammatory phase of formalin test,[12],potent and longer antinociceptive effect
